The results in this text go back to patent publication US20200131144A1, “AMINE OR (THIO)AMIDE CONTAINING LXR MODULATORS” (Phenex-FXR GmbH, priority 2017, published 2020).

Structures are written as SMILES.

One experiment deals with T1, LXRα full length (FL) (Homo sapiens, UniProt Q13133).
T1 construct: the full length (FL) proteins of LXRα (amino acids 1-447); NP005684; expressed in transfected cells; host or cells: HEK293
T1 sequence (Q13133 1-447): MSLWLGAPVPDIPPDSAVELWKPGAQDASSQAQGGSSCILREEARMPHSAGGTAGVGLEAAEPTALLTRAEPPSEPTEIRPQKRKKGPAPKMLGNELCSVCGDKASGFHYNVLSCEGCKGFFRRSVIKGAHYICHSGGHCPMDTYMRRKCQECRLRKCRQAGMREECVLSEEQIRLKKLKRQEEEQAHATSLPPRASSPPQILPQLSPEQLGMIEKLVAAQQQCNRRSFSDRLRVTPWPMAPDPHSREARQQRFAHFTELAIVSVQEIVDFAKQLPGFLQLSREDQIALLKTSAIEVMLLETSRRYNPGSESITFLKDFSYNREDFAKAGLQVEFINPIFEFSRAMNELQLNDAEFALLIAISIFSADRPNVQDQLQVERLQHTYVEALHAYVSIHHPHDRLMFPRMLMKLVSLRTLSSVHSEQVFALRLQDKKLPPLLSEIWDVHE
Put plainly: LXR Gal4 reporter transient transfection assay, mammalian two-hybrid, FL-M2H Gal4α. It is filed as cell-based. The settings on record: HEK293 cells; inverse agonist unless *. How it is done: (§1) The tested compounds were usually dissolved, tested and stored as 20 mM stock solutions in DMSO. Since sulfonyl acetic acid derivatives tend to decarboxylate under these conditions, these stock solutions were prepared, tested and stored as 20 mM DMSO stock solutions containing 100 mM trifluoroacetic acid (5 equivalents). Sulfonyl acetic acid derivatives are shelf stable as solid at rt for long time as reported by Griesbrecht et al. (Synlett 2010:374) or Faucher et al. (J. Med. Chem. 2004; 47:18).
(§2) LXR Gal4 Reporter Transient Transfection Assays
(§3) LXRα and LXRβ activity status was determined via detection of interaction with coactivator and corepressor proteins in mammalian two-hybrid experiments (M2H). For this, via transient transfection the full length (FL) proteins of LXRα (amino acids 1-447; NP005684; SEQ ID NO:1) or LXRβ-(amino acids 1-461; NP009052; SEQ ID NO:2) or the ligand-binding domains (LBD) of LXRα (amino acids 155-447 SEQ ID NO:3) or LXR (amino acids 156-461; SEQ ID NO:4) were expressed from pCMV-AD (Stratagene) as fusions to the transcriptional activation domain of NFkB. As cofactors, domains of either the steroid receptor coactivator 1 (SRC1; amino acids 552-887; SEQ ID NO:5) or of the corepressor NCoR (amino acids 1906-2312; NP006302; SEQ ID NO:6) were expressed as fusions to the DNA binding domain of the yeast transcription factor GAL4 (from pCMV-BD; Stratagene). Interaction was monitored via activation of a coexpressed Firefly Luciferase Reporter gene under control of a promoter containing repetitive GAL4 response elements (vector pFRLuc; Stratagene). Transfection efficiency was controlled via cotransfection of constitutively active pRL-CMV Renilla reniformis luciferase reporter (Promega). HEK293 cells were grown in minimum essential medium (MEM) with 2 mM L-glutamine and Earle's balanced salt solution supplemented with 8.3% fetal bovine serum, 0.1 mM non-essential amino acids, 1 mM sodium pyruvate, at 37° C. in 5% CO2. 3.5×10^4 cells/well were plated in 96-well cell culture plates in growth medium supplemented with 8.3% fetal bovine serum for 16-20 h to—90% confluency. For transfection, medium was taken off and LXR and cofactor expressing plasmids as well as the reporter plasmids are added in 30 μL OPTIMEM/well including polyethylene-imine (PEI) as vehicle. Typical amounts of plasmids transfected/well: pCMV-AD-LXR (5 ng), pCMV-BD-cofactor (5 ng), pFR-Luc (100 ng), pRL-CMV (0.5 ng). Compound stocks were prepared in DMSO, prediluted in MEM to a total volume of 120 μL, and added 4 h after addition of the transfection mixture (final vehicle concentration not exceeding 0.2%). Cells were incubated for additional 16 h, lysed for 10 min in 1×Passive Lysis Buffer (Promega) and Firefly and Renilla luciferase activities were measured sequentially in the same cell extract using buffers containing D-luciferine and coelenterazine, respectively. Measurements of luminescence were done in a BMG-luminometer.
In the case of `Cc1ccc2ccccc2c1C(=O)N(Cc1ccc(C(F)(F)F)o1)Cc1ccc(-c2cccc(C(C)(C)C(=O)O)c2)nc1N` [27/91], the EC50 fell in the range of 100 to 1000 nM.

In the case of `Cc1cc(Br)cc(C)c1C(=O)N(Cc1ccc(-c2cccc(C(C)(C)C(=O)O)c2)cc1)Cc1ccc(C(F)(F)F)o1` [27/48], the EC50 was under 100 nM.

Take `Cc1ccc2ccccc2c1C(=O)N(Cc1ccc(-c2cncc(C(C)(C)C(=O)O)c2)cc1)Cc1ccc(C(F)(F)F)o1` [27/37]: the EC50 is 100 to 1000 nM.

`CC(C)(C(=O)O)c1cccc(-c2ccc(CN(Cc3ccc(C(F)(F)F)o3)C(=O)c3c4ccccc4nc4ccccc34)cc2)c1` [27/31] had an EC50 of under 100 nM.

`Cc1cc(C)c(CN(Cc2ccc(-c3cc(F)cc(S(=O)(=O)CC(=O)O)c3)cc2)Cc2ccc(C(F)(F)F)o2)c(C)c1` [12/1] gave an EC50 of 100 to 1000 nM.

On to `COc1cc(-c2cccc(C(C)(C)C(=O)O)c2)ncc1CN(Cc1ccc(C(F)(F)F)o1)C(=O)c1c(C)ccc2ccccc12` [27/85], for which the EC50 was in the range of 100 to 1000 nM.

`Cc1ccc2nc(C)cc(C(=O)N(Cc3ccc(-c4cccc(C(C)(C)C(=O)O)c4)cc3)Cc3ccc(C(F)(F)F)o3)c2c1` [27/125] returned an EC50 of under 100 nM.

Molecule `Cc1ccc2ccccc2c1C(=O)N(Cc1ccc(C(F)(F)F)o1)Cc1ccc(-c2cncc(S(=O)(=O)CC(=O)O)c2)cc1Cl` [27/58] gave an EC50 of 100 to 1000 nM.

Regarding `O=C(O)CS(=O)(=O)c1cccc(-c2ccc(CN(Cc3ccc(C(F)(F)F)o3)C(=O)c3c(OC(F)F)ccc4ccccc34)cc2)c1` [27/42], the EC50 lay in the range of 1000 to 10000 nM.

A further experiment has as its target T2, GST-LXRβ ligand-binding domain (Homo sapiens, UniProt P55055, INS174Q).
T2 construct: amino acids 156-461; NP009052; made in house; host or cells: E. coli
T2 sequence (P55055 with tags, fused parts or gaps INS174Q limits assumed): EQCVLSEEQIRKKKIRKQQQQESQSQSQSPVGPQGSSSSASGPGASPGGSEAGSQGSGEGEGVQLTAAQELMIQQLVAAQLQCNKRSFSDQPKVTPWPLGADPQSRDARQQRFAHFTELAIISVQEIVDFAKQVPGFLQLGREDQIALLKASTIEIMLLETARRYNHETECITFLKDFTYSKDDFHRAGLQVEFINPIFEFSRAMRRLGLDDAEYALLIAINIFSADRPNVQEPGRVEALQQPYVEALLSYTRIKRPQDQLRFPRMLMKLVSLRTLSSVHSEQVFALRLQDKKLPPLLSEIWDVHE
Put plainly: TR-FRETβ activity assay (NCoA3 coactivator peptide recruitment). It counts as biochemical. The conditions noted are these: 1 μM 24(S)-25-epoxycholesterol as prestimulating agonist; inverse agonist unless *. The procedure:
The tested compounds were usually dissolved, tested and stored as 20 mM stock solutions in DMSO. […] Sulfonyl acetic acid derivatives are shelf stable as solid at rt for long time as reported by Griesbrecht et al. (Synlett 2010:374) or Faucher et al. (J. Med. Chem. 2004; 47:18). TR-FRETβ Activity Assay Recombinant GST-LXRβ ligand-binding domain (LBD; amino acids 156-461; NP009052; SEQ ID NO:4) was expressed in E. coli and purified via gluthatione-sepharose affinity chromatography. N-terminally biotinylated NCoA3 coactivator peptide (SEQ ID NO:7) was chemically synthesized (Eurogentec). […] Finally, a detection mix was added containing anti GST-Tb cryptate (CisBio; 610SAXLB) and Streptavidin-XL665 (CisBio; 610SAXLB) as fluorescent donor and acceptor, respectively, as well as the coactivator peptide and LXRβ-LBD protein (SEQ ID NO:4). The reaction was mixed thoroughly, equilibrated for 1 h at 4° C. and vicinity of LXRβ and coactivator peptide was detected by measurement of fluorescence in a VictorX4 multiplate reader (PerkinElmer Life Science) using 340 nm as excitation and 615 and 665 nm as emission wavelengths. Assays were performed in triplicates. Final Assay Concentrations of Components: 240 mM KCl, 1 μg/μL BSA, 0.002% Triton-X-100, 125 pg/μL anti GST-Tb cryptate, 2.5 ng/μL Streptavidin-XL665, coactivator peptide (400 nM), LXRP protein ([…], i.e. 76 nM).
`Cc1ccc2ccccc2c1C(=O)N(Cc1ccc(C(F)(F)F)o1)Cc1ccc(-c2cccc(C(C)(C)C(=O)O)c2)nc1N` [27/91] displayed an EC50 of 1000 to 10000 nM.

With `Cc1cc(Br)cc(C)c1C(=O)N(Cc1ccc(-c2cccc(C(C)(C)C(=O)O)c2)cc1)Cc1ccc(C(F)(F)F)o1` [27/48], the EC50 was 100 to 1000 nM.

Regarding `Cc1ccc2ccccc2c1C(=O)N(Cc1ccc(-c2cncc(C(C)(C)C(=O)O)c2)cc1)Cc1ccc(C(F)(F)F)o1` [27/37], the 50% effective concentration (EC50) lay within 100 to 1000 nM.

Consider `CC(C)(C(=O)O)c1cccc(-c2ccc(CN(Cc3ccc(C(F)(F)F)o3)C(=O)c3c4ccccc4nc4ccccc34)cc2)c1` [27/31], for which the EC50 is under 100 nM.

On to `Cc1cc(C)c(CN(Cc2ccc(-c3cc(F)cc(S(=O)(=O)CC(=O)O)c3)cc2)Cc2ccc(C(F)(F)F)o2)c(C)c1` [12/1], for which the EC50 lay in the range of 100 to 1000 nM.

On to `COc1cc(-c2cccc(C(C)(C)C(=O)O)c2)ncc1CN(Cc1ccc(C(F)(F)F)o1)C(=O)c1c(C)ccc2ccccc12` [27/85], for which the EC50 lay within 1000 to 10000 nM.

`Cc1ccc2nc(C)cc(C(=O)N(Cc3ccc(-c4cccc(C(C)(C)C(=O)O)c4)cc3)Cc3ccc(C(F)(F)F)o3)c2c1` [27/125] showed an EC50 of 100 to 1000 nM.

In turn, `Cc1ccc2ccccc2c1C(=O)N(Cc1ccc(C(F)(F)F)o1)Cc1ccc(-c2cncc(S(=O)(=O)CC(=O)O)c2)cc1Cl` [27/58] yielded an EC50 of 1000 to 10000 nM.

Molecule `O=C(O)CS(=O)(=O)c1cccc(-c2ccc(CN(Cc3ccc(C(F)(F)F)o3)C(=O)c3c(OC(F)F)ccc4ccccc34)cc2)c1` [27/42] yielded an EC50 of 100 to 1000 nM.

For another experiment, the target named is T3, LXRβ full length (FL) (Homo sapiens, UniProt P55055, INS174Q).
T3 construct: the full length (FL) proteins of LXRα (amino acids 1-447); NP005684; NP009052; expressed in transfected cells; host or cells: HEK293
T3 sequence (P55055 with tags, fused parts or gaps INS174Q): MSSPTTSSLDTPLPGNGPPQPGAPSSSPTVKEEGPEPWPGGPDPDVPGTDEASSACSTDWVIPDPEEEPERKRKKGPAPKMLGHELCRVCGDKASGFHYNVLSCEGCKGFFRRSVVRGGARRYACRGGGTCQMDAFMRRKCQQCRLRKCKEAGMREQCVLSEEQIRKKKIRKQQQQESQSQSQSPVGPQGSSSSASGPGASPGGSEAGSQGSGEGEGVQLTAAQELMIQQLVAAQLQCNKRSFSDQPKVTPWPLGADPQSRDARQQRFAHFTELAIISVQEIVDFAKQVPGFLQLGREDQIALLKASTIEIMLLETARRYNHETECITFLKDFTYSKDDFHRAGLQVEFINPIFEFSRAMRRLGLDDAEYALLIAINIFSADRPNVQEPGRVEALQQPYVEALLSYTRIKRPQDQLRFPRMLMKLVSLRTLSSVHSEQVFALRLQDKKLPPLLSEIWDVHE
Put plainly: LXR Gal4 reporter transient transfection assay, mammalian two-hybrid, FL-M2H Gal4β. It is filed as cell-based. The settings on record: HEK293 cells; inverse agonist unless *. The procedure:
as §1, §2, §3
Molecule `Cc1ccc2ccccc2c1C(=O)N(Cc1ccc(C(F)(F)F)o1)Cc1ccc(-c2cccc(C(C)(C)C(=O)O)c2)nc1N` [27/91] registered an EC50 of under 100 nM.

Regarding `Cc1cc(Br)cc(C)c1C(=O)N(Cc1ccc(-c2cccc(C(C)(C)C(=O)O)c2)cc1)Cc1ccc(C(F)(F)F)o1` [27/48], the 50% effective concentration (EC50) was under 100 nM.

`Cc1ccc2ccccc2c1C(=O)N(Cc1ccc(-c2cncc(C(C)(C)C(=O)O)c2)cc1)Cc1ccc(C(F)(F)F)o1` [27/37] showed an EC50 of under 100 nM.

Take `CC(C)(C(=O)O)c1cccc(-c2ccc(CN(Cc3ccc(C(F)(F)F)o3)C(=O)c3c4ccccc4nc4ccccc34)cc2)c1` [27/31]: the EC50 is under 100 nM.

In turn, `Cc1cc(C)c(CN(Cc2ccc(-c3cc(F)cc(S(=O)(=O)CC(=O)O)c3)cc2)Cc2ccc(C(F)(F)F)o2)c(C)c1` [12/1] displayed an EC50 of 100 to 1000 nM.

On to `COc1cc(-c2cccc(C(C)(C)C(=O)O)c2)ncc1CN(Cc1ccc(C(F)(F)F)o1)C(=O)c1c(C)ccc2ccccc12` [27/85], for which the EC50 is 100 to 1000 nM.

The molecule `Cc1ccc2nc(C)cc(C(=O)N(Cc3ccc(-c4cccc(C(C)(C)C(=O)O)c4)cc3)Cc3ccc(C(F)(F)F)o3)c2c1` [27/125] came in with an EC50 of under 100 nM.

In the case of `Cc1ccc2ccccc2c1C(=O)N(Cc1ccc(C(F)(F)F)o1)Cc1ccc(-c2cncc(S(=O)(=O)CC(=O)O)c2)cc1Cl` [27/58], the EC50 lay in the range of 100 to 1000 nM.

`O=C(O)CS(=O)(=O)c1cccc(-c2ccc(CN(Cc3ccc(C(F)(F)F)o3)C(=O)c3c(OC(F)F)ccc4ccccc34)cc2)c1` [27/42] gave a concentration giving a half-maximal response (EC50) of 100 to 1000 nM.
